Measured values from BigSolDB 2.1.

Nc1cncc(Cl)n1
solubility (mole fraction) (in DMF, 278.15 K): 0.00915
solubility (mole fraction) (in DMF, 283.15 K): 0.0111
solubility (mole fraction) (in DMF, 288.15 K): 0.0135
solubility (mole fraction) (in DMF, 293.15 K): 0.0162
solubility (mole fraction) (in DMF, 298.15 K): 0.0194
solubility (mole fraction) (in DMF, 303.15 K): 0.023
solubility (mole fraction) (in DMF, 308.15 K): 0.0271
solubility (mole fraction) (in DMF, 313.15 K): 0.0322
solubility (mole fraction) (in DMF, 318.15 K): 0.0378
solubility (mole fraction) (in DMF, 323.15 K): 0.0442
solubility (mole fraction) (in acetone, 278.15 K): 0.0117
solubility (mole fraction) (in acetone, 283.15 K): 0.0141
solubility (mole fraction) (in acetone, 288.15 K): 0.0167
solubility (mole fraction) (in acetone, 293.15 K): 0.0198
solubility (mole fraction) (in acetone, 298.15 K): 0.0231
solubility (mole fraction) (in acetone, 303.15 K): 0.0269
solubility (mole fraction) (in acetone, 308.15 K): 0.0314
solubility (mole fraction) (in acetone, 313.15 K): 0.0371
solubility (mole fraction) (in acetone, 318.15 K): 0.0431
solubility (mole fraction) (in acetone, 323.15 K): 0.0505
solubility (mole fraction) (in acetonitrile, 278.15 K): 0.00984
solubility (mole fraction) (in acetonitrile, 283.15 K): 0.0119
solubility (mole fraction) (in acetonitrile, 288.15 K): 0.0143
solubility (mole fraction) (in acetonitrile, 293.15 K): 0.0172
solubility (mole fraction) (in acetonitrile, 298.15 K): 0.0209
solubility (mole fraction) (in acetonitrile, 303.15 K): 0.0248
solubility (mole fraction) (in acetonitrile, 308.15 K): 0.0295
solubility (mole fraction) (in acetonitrile, 313.15 K): 0.0352
solubility (mole fraction) (in acetonitrile, 318.15 K): 0.041
solubility (mole fraction) (in acetonitrile, 323.15 K): 0.0488
solubility (mole fraction) (in ethanol, 278.15 K): 0.00159
solubility (mole fraction) (in ethanol, 283.15 K): 0.0019
solubility (mole fraction) (in ethanol, 288.15 K): 0.00226
solubility (mole fraction) (in ethanol, 293.15 K): 0.00272
solubility (mole fraction) (in ethanol, 298.15 K): 0.00323
solubility (mole fraction) (in ethanol, 303.15 K): 0.00384
solubility (mole fraction) (in ethanol, 308.15 K): 0.00453
solubility (mole fraction) (in ethanol, 313.15 K): 0.0053
solubility (mole fraction) (in ethanol, 318.15 K): 0.00624
solubility (mole fraction) (in ethanol, 323.15 K): 0.00756
solubility (mole fraction) (in ethylene glycol, 278.15 K): 0.000717
solubility (mole fraction) (in ethylene glycol, 283.15 K): 0.000905
solubility (mole fraction) (in ethylene glycol, 288.15 K): 0.00113
solubility (mole fraction) (in ethylene glycol, 293.15 K): 0.00141
solubility (mole fraction) (in ethylene glycol, 298.15 K): 0.00172
solubility (mole fraction) (in ethylene glycol, 303.15 K): 0.00204
solubility (mole fraction) (in ethylene glycol, 308.15 K): 0.00239
solubility (mole fraction) (in ethylene glycol, 313.15 K): 0.00281
solubility (mole fraction) (in ethylene glycol, 318.15 K): 0.00325
solubility (mole fraction) (in ethylene glycol, 323.15 K): 0.00377
solubility (mole fraction) (in isopropanol, 278.15 K): 0.00421
solubility (mole fraction) (in isopropanol, 283.15 K): 0.00503
solubility (mole fraction) (in isopropanol, 288.15 K): 0.00608
solubility (mole fraction) (in isopropanol, 293.15 K): 0.00737
solubility (mole fraction) (in isopropanol, 298.15 K): 0.00874
solubility (mole fraction) (in isopropanol, 303.15 K): 0.0104
solubility (mole fraction) (in isopropanol, 308.15 K): 0.0122
solubility (mole fraction) (in isopropanol, 313.15 K): 0.0146
solubility (mole fraction) (in isopropanol, 318.15 K): 0.017
solubility (mole fraction) (in isopropanol, 323.15 K): 0.0198
solubility (mole fraction) (in methanol, 278.15 K): 0.00114
solubility (mole fraction) (in methanol, 283.15 K): 0.00135
solubility (mole fraction) (in methanol, 288.15 K): 0.00164
solubility (mole fraction) (in methanol, 293.15 K): 0.00196
solubility (mole fraction) (in methanol, 298.15 K): 0.00244
solubility (mole fraction) (in methanol, 303.15 K): 0.00293
solubility (mole fraction) (in methanol, 308.15 K): 0.00347
solubility (mole fraction) (in methanol, 313.15 K): 0.00415
solubility (mole fraction) (in methanol, 318.15 K): 0.00489
solubility (mole fraction) (in methanol, 323.15 K): 0.00575
solubility (mole fraction) (in n-propanol, 278.15 K): 0.00494
solubility (mole fraction) (in n-propanol, 283.15 K): 0.00588
solubility (mole fraction) (in n-propanol, 288.15 K): 0.00709
solubility (mole fraction) (in n-propanol, 293.15 K): 0.00858
solubility (mole fraction) (in n-propanol, 298.15 K): 0.0105
solubility (mole fraction) (in n-propanol, 303.15 K): 0.0127
solubility (mole fraction) (in n-propanol, 308.15 K): 0.0152
solubility (mole fraction) (in n-propanol, 313.15 K): 0.0181
solubility (mole fraction) (in n-propanol, 318.15 K): 0.0211
solubility (mole fraction) (in n-propanol, 323.15 K): 0.0246
solubility (mole fraction) (in propylene glycol, 278.15 K): 0.000917
solubility (mole fraction) (in propylene glycol, 283.15 K): 0.00115
solubility (mole fraction) (in propylene glycol, 288.15 K): 0.00139
solubility (mole fraction) (in propylene glycol, 293.15 K): 0.00171
solubility (mole fraction) (in propylene glycol, 298.15 K): 0.00204
solubility (mole fraction) (in propylene glycol, 303.15 K): 0.00237
solubility (mole fraction) (in propylene glycol, 308.15 K): 0.00281
solubility (mole fraction) (in propylene glycol, 313.15 K): 0.00327
solubility (mole fraction) (in propylene glycol, 318.15 K): 0.00379
solubility (mole fraction) (in propylene glycol, 323.15 K): 0.00448
solubility (mole fraction) (in water, 278.15 K): 3.62e-05
solubility (mole fraction) (in water, 283.15 K): 4.42e-05
solubility (mole fraction) (in water, 288.15 K): 5.21e-05
solubility (mole fraction) (in water, 293.15 K): 6.29e-05
solubility (mole fraction) (in water, 298.15 K): 7.43e-05
solubility (mole fraction) (in water, 303.15 K): 8.97e-05
solubility (mole fraction) (in water, 308.15 K): 0.000105
solubility (mole fraction) (in water, 313.15 K): 0.000123
solubility (mole fraction) (in water, 318.15 K): 0.000143
solubility (mole fraction) (in water, 323.15 K): 0.000168
